In brackets after ≈: the same amount, converted by molar mass. *1 amine or outer side, *2 acyl side, *3 side chain or, on linkers, in order; H or OH if unused. Where a SMILES comes first, the peptide text is derived from it. Bridges are numbered along the chain shown (N, C = ends). [ ]: non-standard residue; d: D form. The star is where a group is joined. hTyr(3S-OH,4S-OH,3'-OSO3H) = N[C@H](C(=O)O)[C@H](O)[C@@H](O)c1ccc(O)c(OS(=O)(=O)O)c1; Orn(4R-OH,5R-OH) = O=C([C@H](C[C@@H](O)[C@@H](O)N[*:3])N[*:1])[*:2]; Pro(3S-OH,4S-Me) = C[C@H]1CN[C@H](C(=O)O)[C@H]1O; X1 = CCCCCOc1ccc(-c2cc(-c3ccc(C(=O)*)cc3)no2)cc1; Gln(3R-OH) = NC(=O)C[C@@H](O)[C@H](N)C(=O)O; Hyp = O=C(O)[C@@H]1C[C@@H](O)CN1
Assays:
Format in all cases: functional
Meyerozyma caribbica = assay: Antifungal activity against Candida fermentati after 24 to 48 hrs by AFST-EUCAST based broth microdilution method
Kluyveromyces marxianus = assay: Antifungal activity against Candida kefyr after 24 to 48 hrs by AFST-EUCAST based broth microdilution method
[1] = test system: Meyerozyma guilliermondii; assay: Antifungal activity against Candida guilliermondii after 24 to 48 hrs by AFST-EUCAST based broth microdilution method
Clavispora lusitaniae = assay: Antifungal activity against Candida lusitaniae after 24 to 48 hrs by AFST-EUCAST based broth microdilution method
Kodamaea ohmeri = assay: Antifungal activity against Kodamaea ohmeri after 24 to 48 hrs by AFST-EUCAST based broth microdilution method
[Candida] inconspicua = Antifungal activity against Candida inconspicua after 24 to 48 hrs by AFST-EUCAST based broth microdilution method; settings: Pichia inconspicua
Debaryomyces hansenii = assay: Antifungal activity against Candida famata after 24 to 48 hrs by AFST-EUCAST based broth microdilution method
Trichosporon = assay: Antifungal activity against Trichosporon after 24 to 48 hrs by AFST-EUCAST based broth microdilution method
Wickerhamomyces anomalus = assay: Antifungal activity against Candida pelliculosa after 24 to 48 hrs by AFST-EUCAST based broth microdilution method; settings: Hansenula anomala
Pichia fermentans = assay: Antifungal activity against Candida lambica after 24 to 48 hrs by AFST-EUCAST based broth microdilution method
Nakaseomyces nivariensis = assay: Antifungal activity against Candida nivariensis after 24 to 48 hrs by AFST-EUCAST based broth microdilution method
Geotrichum = assay: Antifungal activity against Geotrichum after 24 to 48 hrs by AFST-EUCAST based broth microdilution method
Cryptococcus neoformans = assay: Antifungal activity against […] after 24 to 48 hrs by AFST-EUCAST based broth microdilution method
Candida dubliniensis = assay: Antifungal activity against Candida dubliniensis after 24 to 48 hrs by AFST-EUCAST based broth microdilution method
Saccharomyces cerevisiae = assay: Antifungal activity against Saccharomyces cerevisiae after 24 to 48 hrs by AFST-EUCAST based broth microdilution method
Yarrowia lipolytica = assay: Antifungal activity against Candida lipolytica after 24 to 48 hrs by AFST-EUCAST based broth microdilution method
Candida albicans = assay: Antifungal activity against Candida albicans after 24 to 48 hrs by AFST-EUCAST based broth microdilution method
Candida africana = assay: Antifungal activity against Candida africana after 24 to 48 hrs by AFST-EUCAST based broth microdilution method
Zygosaccharomyces = assay: Antifungal activity against Zygosaccharomyces after 24 to 48 hrs by AFST-EUCAST based broth microdilution method
Pichia kudriavzevii = assay: Antifungal activity against Candida krusei ATCC 6258 after 24 to 48 hrs by AFST-EUCAST based broth microdilution method
[Candida] intermedia = Antifungal activity against Candida intermedia after 24 to 48 hrs by AFST-EUCAST based broth microdilution method; settings: Sungouiella intermedia
Kluyveromyces lactis = assay: Antifungal activity against Candida sphaerica after 24 to 48 hrs by AFST-EUCAST based broth microdilution method
Pichia norvegensis = assay: Antifungal activity against Candida norvegensis after 24 to 48 hrs by AFST-EUCAST based broth microdilution method
Candida parapsilosis = assay: Antifungal activity against Candida parapsilosis ATCC 22019 after 24 to 48 hrs by AFST-EUCAST based broth microdilution method; settings: Lodderomyces parapsilosis
[Candida] haemuloni = Antifungal activity against Candida haemulonii after 24 to 48 hrs by AFST-EUCAST based broth microdilution method; settings: Candidozyma haemuli
Diutina rugosa = assay: Antifungal activity against Candida rugosa after 24 to 48 hrs by AFST-EUCAST based broth microdilution method
Cyberlindnera saturnus = assay: Antifungal activity against Williopsis saturnus after 24 to 48 hrs by AFST-EUCAST based broth microdilution method
Candida tropicalis = assay: Antifungal activity against Candida tropicalis after 24 to 48 hrs by AFST-EUCAST based broth microdilution method
Cyberlindnera jadinii = assay: Antifungal activity against Candida utilis after 24 to 48 hrs by AFST-EUCAST based broth microdilution method; settings: Williopsis jadinii
Rhodotorula mucilaginosa = assay: Antifungal activity against Rhodotorula mucilaginosa after 24 to 48 hrs by AFST-EUCAST based broth microdilution method
Nakaseomyces glabratus = assay: Antifungal activity against Candida glabrata after 24 to 48 hrs by AFST-EUCAST based broth microdilution method

Q: For CCCCCOc1ccc(-c2cc(-c3ccc(C(=O)N[C@H]4C[C@@H](O)[C@@H](O)NC(=O)[C@@H]5[C@@H](O)[C@@H](C)CN5C(=O)[C@H]([C@H](O)CC(N)=O)NC(=O)[C@H]([C@H](O)[C@@H](O)c5ccc(O)c(OS(=O)(=O)O)c5)NC(=O)[C@@H]5C[C@@H](O)CN5C(=O)[C@H]([C@@H](C)O)NC4=O)cc3)no2)cc1 [MICAFUNGIN] (X1-[Orn(4R-OH,5R-OH)]T[Hyp][hTyr(3S-OH,4S-OH,3'-OSO3H)][Gln(3R-OH)][Pro(3S-OH,4S-Me)]; lactam 1-C), which MIC50 (Meyerozyma caribbica) is on record?
A: 1 µg/mL (≈ 0.787 µM)

Q: What about the MIC90 (Meyerozyma caribbica) of the same molecule?
A: 1 µg/mL (≈ 0.787 µM)

Q: What about the MIC50 (Kluyveromyces marxianus) of the same molecule?
A: 0.125 µg/mL (≈ 0.0984 µM)

Q: What about the MIC90 (Kluyveromyces marxianus) of the same molecule?
A: 0.25 µg/mL (≈ 0.197 µM)

Q: And the MIC50 [1]?
A: 1 µg/mL (≈ 0.787 µM)

Q: And the MIC90 [1]?
A: 2 µg/mL (≈ 1.57 µM)

Q: And the MIC50 (Clavispora lusitaniae)?
A: 0.25 µg/mL (≈ 0.197 µM)

Q: What about the MIC90 (Clavispora lusitaniae) of the same molecule?
A: 0.5 µg/mL (≈ 0.394 µM)

Q: And the MIC50 (Kodamaea ohmeri)?
A: 0.25 µg/mL (≈ 0.197 µM)

Q: What about the MIC90 (Kodamaea ohmeri) of the same molecule?
A: 16 µg/mL (≈ 12.6 µM)

Q: And the MIC50 ([Candida] inconspicua)?
A: 0.06 µg/mL (≈ 0.0472 µM)

Q: What about the MIC90 ([Candida] inconspicua) of the same molecule?
A: 1 µg/mL (≈ 0.787 µM)

Q: And the MIC50 (Debaryomyces hansenii)?
A: 0.06 µg/mL (≈ 0.0472 µM)

Q: And the MIC90 (Debaryomyces hansenii)?
A: 1 µg/mL (≈ 0.787 µM)

Q: And the MIC50 (Trichosporon)?
A: 16 µg/mL (≈ 12.6 µM)

Q: What about the MIC50 (Wickerhamomyces anomalus) of the same molecule?
A: 0.06 µg/mL (≈ 0.0472 µM)

Q: What about the MIC90 (Wickerhamomyces anomalus) of the same molecule?
A: 1 µg/mL (≈ 0.787 µM)

Q: And the MIC50 (Pichia fermentans)?
A: 0.06 µg/mL (≈ 0.0472 µM)

Q: What about the MIC90 (Pichia fermentans) of the same molecule?
A: 1 µg/mL (≈ 0.787 µM)

Q: And the MIC50 (Nakaseomyces nivariensis)?
A: 0.06 µg/mL (≈ 0.0472 µM)

Q: And the MIC90 (Nakaseomyces nivariensis)?
A: 1 µg/mL (≈ 0.787 µM)

Q: And the MIC50 (Geotrichum)?
A: 0.25 µg/mL (≈ 0.197 µM)

Q: What about the MIC90 (Geotrichum) of the same molecule?
A: 16 µg/mL (≈ 12.6 µM)

Q: And the MIC50 (Cryptococcus neoformans)?
A: 16 µg/mL (≈ 12.6 µM)

Q: What about the MIC90 (Cryptococcus neoformans) of the same molecule?
A: 16 µg/mL (≈ 12.6 µM)

Q: What about the MIC50 (Candida dubliniensis) of the same molecule?
A: 0.06 µg/mL (≈ 0.0472 µM)

Q: And the MIC90 (Candida dubliniensis)?
A: 1 µg/mL (≈ 0.787 µM)

Q: And the MIC50 (Saccharomyces cerevisiae)?
A: 0.25 µg/mL (≈ 0.197 µM)

Q: And the MIC90 (Saccharomyces cerevisiae)?
A: 16 µg/mL (≈ 12.6 µM)

Q: And the MIC50 (Yarrowia lipolytica)?
A: 0.06 µg/mL (≈ 0.0472 µM)

Q: And the MIC90 (Yarrowia lipolytica)?
A: 1 µg/mL (≈ 0.787 µM)

Q: What about the MIC50 (Candida albicans) of the same molecule?
A: 0.03 µg/mL (≈ 0.0236 µM)

Q: What about the MIC90 (Candida albicans) of the same molecule?
A: 0.06 µg/mL (≈ 0.0472 µM)

Q: What about the MIC50 (Candida africana) of the same molecule?
A: 0.06 µg/mL (≈ 0.0472 µM)

Q: And the MIC90 (Candida africana)?
A: 1 µg/mL (≈ 0.787 µM)

Q: What about the MIC50 (Zygosaccharomyces) of the same molecule?
A: 0.25 µg/mL (≈ 0.197 µM)

Q: And the MIC90 (Zygosaccharomyces)?
A: 16 µg/mL (≈ 12.6 µM)

Q: What about the MIC50 (Pichia kudriavzevii) of the same molecule?
A: 0.25 µg/mL (≈ 0.197 µM)

Q: What about the MIC90 (Pichia kudriavzevii) of the same molecule?
A: 0.25 µg/mL (≈ 0.197 µM)

Q: What about the MIC50 ([Candida] intermedia) of the same molecule?
A: 0.06 µg/mL (≈ 0.0472 µM)

Q: What about the MIC90 ([Candida] intermedia) of the same molecule?
A: 1 µg/mL (≈ 0.787 µM)

Q: What about the MIC50 (Kluyveromyces lactis) of the same molecule?
A: 0.06 µg/mL (≈ 0.0472 µM)

Q: What about the MIC90 (Kluyveromyces lactis) of the same molecule?
A: 1 µg/mL (≈ 0.787 µM)

Q: What about the MIC50 (Pichia norvegensis) of the same molecule?
A: 0.06 µg/mL (≈ 0.0472 µM)

Q: And the MIC90 (Pichia norvegensis)?
A: 1 µg/mL (≈ 0.787 µM)

Q: What about the MIC50 (Candida parapsilosis) of the same molecule?
A: 2 µg/mL (≈ 1.57 µM)

Q: What about the MIC90 (Candida parapsilosis) of the same molecule?
A: 2 µg/mL (≈ 1.57 µM)

Q: What about the MIC50 ([Candida] haemuloni) of the same molecule?
A: 0.25 µg/mL (≈ 0.197 µM)

Q: What about the MIC90 ([Candida] haemuloni) of the same molecule?
A: 0.25 µg/mL (≈ 0.197 µM)

Q: And the MIC50 (Diutina rugosa)?
A: 0.06 µg/mL (≈ 0.0472 µM)

Q: What about the MIC90 (Diutina rugosa) of the same molecule?
A: 1 µg/mL (≈ 0.787 µM)

Q: What about the MIC50 (Cyberlindnera saturnus) of the same molecule?
A: 0.25 µg/mL (≈ 0.197 µM)

Q: What about the MIC90 (Cyberlindnera saturnus) of the same molecule?
A: 16 µg/mL (≈ 12.6 µM)

Q: What about the MIC50 (Candida tropicalis) of the same molecule?
A: 0.06 µg/mL (≈ 0.0472 µM)

Q: What about the MIC90 (Candida tropicalis) of the same molecule?
A: 0.125 µg/mL (≈ 0.0984 µM)

Q: What about the MIC50 (Cyberlindnera jadinii) of the same molecule?
A: 0.06 µg/mL (≈ 0.0472 µM)

Q: What about the MIC90 (Cyberlindnera jadinii) of the same molecule?
A: 1 µg/mL (≈ 0.787 µM)

Q: What about the MIC50 (Rhodotorula mucilaginosa) of the same molecule?
A: 16 µg/mL (≈ 12.6 µM)

Q: And the MIC50 (Nakaseomyces glabratus)?
A: 0.03 µg/mL (≈ 0.0236 µM)

Q: And the MIC90 (Nakaseomyces glabratus)?
A: 0.06 µg/mL (≈ 0.0472 µM)

Source: ChEMBL document CHEMBL1153563, “Comparative in vitro activities of caspofungin and micafungin, determined using the method of the European Committee on Antimicrobial Susceptibility Testing, against yeast isolates obtained in France in 2005-2006” (2008)
